# Patent publication US20260248794A1, “METHODS AND MATERIALS FOR PROMOTING BONE GROWTH” (Mayo Foundation for Medical Education and Research, priority 2022, published 2026)
# Values joined by “and” are separate entries in the source; they are usually repeats but may differ in a detail not shown here. Equal values may be shown once. “Also recorded” adds a separate entry of the source.
# Columns and labels:
# H3K27me3 in MC3T3 cells = experiment: Western blotting for H3K27me3 in MC3T3 cells treated with EED inhibitor; format: cell-based, murine; details: A-395 at 0.02-10 mM as printed, FIG. 5A
# Experimental: (§1) MC3T3 sc4 murine calvarial osteoblasts were purchased from American Type Culture Collection and maintained in α-minimal essential medium without ascorbic acid (Gibco) containing 10% fetal bovine serum (Atlanta Biologicals), 100 units/mL penicillin, and 100 µg/mL streptomycin (Gibco).
# MC3T3 cells (4,000 cells/cm^2) were plated in 6-well plates in maintenance medium. […] Cells were lysed in radioimmunoprecipitation buffer (150 mm NaCl, 50 mm Tris, pH 7.4, 1% sodium deoxycholate, 0.1% sodium dodecyl sulfate, 1% Triton X-100) supplemented with protease inhibitor mixture (Sigma) and phenylmethylsulfonyl fluoride (Sigma). Lysates were cleared by centrifugation. Protein concentrations were determined by the DC Protein Assay (Bio-Rad). Proteins were resolved by SDS-PAGE and transferred to polyvinylidene difluoride membranes. After blocking in 5% nonfat dry milk for 45 minutes at room temperature, primary antibodies were added overnight at 4° C., followed by secondary antibodies for 1 hour at room temperature. Proteins were visualized using an ECL Prime detection kit.
# G610C mice [1] = experiment: Three-point bending of G610C mice treated with A-395 for 3 weeks; format: in vivo; details: male G610C mice
# Description: Three-point bend fixture was mounted on a servohydrauilic mechanical testing frame (#312, MTS Systems) instrumented with a 100-N capacity load cell (#3397-25, Leebow Products). Femurs were be mounted on supports spanning 8 mm. Point loading was applied to the femur mid-shaft allowing the bones to flex about an axis aligned with the medial-lateral line. Loading was applied under displacement control at a rate of 20 mm/minute until fracture. Force and displacement data were be sampled at 256 Hz. Peak load and peak displacement was be quantified. The stiffness was be calculated from the slope of the linear region of the force displacement curve.
# (§2) G610C mice were treat with the EED inhibitor A-395. […] The dose of A-395 was lowered to see if that improved the health of the mice and bone formation. Three 5-week-old male G610C mice were treated with DMSO control or either 50 mg/kg or 100 mg/kg A-395 twice a week by subcutaneous injection for 3 weeks.
# [2] = Weight, femur length and toxicity in OI mice treated with A-395 for 5 weeks; format: in vivo; details: for Weigh at 3 weeks: 3 weeks of age, prior to treatment; for Weight at 5 weeks: start of treatment; for Weight at 10 weeks: individual OI mice
# Experimental: (§3) Five-week-old OI mice (mice harboring the Col1a2 c.2098G>T p.Gly700Cys allele […]) were subcutaneously injected with DMSO (vehicle) or EED inhibitor A-395 (Sigma) at concentrations of either 100 mg/kg or 300 mg/kg twice weekly for 5 weeks.
# (§4) 5-week-old OI mice were treated twice weekly with a subcutaneous injection of either vehicle (DMSO) or EED inhibitor A-395 had concentrations of 300 mg/kg or 100 mg/kg. These mice were treated for five weeks and then analyzed for changes in bone structure.
# OI mice were weighed at 3 weeks of age prior to treatment, at the start of treatment at 5 weeks, and after 5 weeks of treatment with vehicle (Veh), 300 mg/kg (300), or 100 mg/kg (100) of A-395.
# G610C mice [3] = experiment: μCT analysis of G610C mice treated with A-395 for 3 weeks; format: in vivo; details: male G610C mice
# Experimental: as §2
# MC3T3 cells = experiment: Osteogenic differentiation of MC3T3 cells (RT-qPCR of osteogenic genes, alizarin red staining); format: cell-based, murine; details: differentiating MC3T3 cells; FIG. 5B-5F
# Experimental: as §1
# For osteogenic differentiation, MC3T3s were seeded in respective maintenance medium at a density of 10,000 cells/cm^2. Next day, osteogenic medium supplemented with vehicle, GSK126 (Xcess Biociences Inc.) or A-395 (Sigma) was added to the cells. Osteogenic medium for MC3T3 cells consisted of 50 μg/mL ascorbic acid (Sigma) and 4 mm β-glycerol phosphate (Sigma). Three days later, old medium was replaced with a fresh batch of osteogenic medium supplemented with vehicle, GSK126, or A-395. On day 6 of differentiation, fresh osteogenic medium without supplements was added and replenished every 2 to 3 days. On day 14, cells were fixed in 10% neutral buffered formalin and stained with 2% alizarin red to visualize calcium deposition.
# Total RNA was isolated using the Direct-zol™ RNA kit (Zymo Research) and quantified using the NanoDrop 2000 spectrophotometer (Thermo Fischer Scientific). RNA was then reverse transcribed into cDNA by the SuperScript III First-Strand Synthesis System (Invitrogen). Transcript levels were then measured using the 2^ΔΔct method and normalized GAPDH (set at 100), a housekeeping gene.
# OI mice = experiment: μCT analysis of femurs of OI mice treated with A-395 for 5 weeks; format: in vivo
# Experimental: as §3
# Femurs of injected mice were scanned by μCT Skyscan 1076 (Brunker) at the maximal potencial 60 kV and 167 μA with 0.25 mm thick aluminum filter and at the voxel resolution of 9 μm. The μCT scans were performed over 360° of total rotation with each angular rotation step of 0.7°. […] The trabecular region of interest were selected with reference to the growth plate. The 2D images were created using CTAn siftware package (Skyscan). The 3D μCT models of each femur were created using a 3D reconstruction software package (Skyscan).
# as §4
# G610C mice [4] = experiment: μCT analysis of G610C mice treated with MAK683 for 3 weeks (three mice); format: in vivo; details: for bone density / trabecular structure: G610C mice, vs vehicle treated control; for bone parameters (μCT) vs controls: male G610C mice, 3 weeks
# Experimental: To determine if MAK683 improved bone formation in OI, three 5-week-old male G610C mice were injected SQ with 50 mg/kg MAK683 twice a week for 3 weeks.
# OVX mice = experiment: μCT analysis of OVX mice treated with MAK683; format: in vivo, C57BL/6 female mice
# Experimental: To assess whether EED inhibition could rescue low bone mass due to osteoporosis, ovariectomy (OVX) or sham (Sham) surgery on was performed 15-week-old C57BL/6 female mice with 6 animals per group. On the day of surgery, all mice were imaged using a PIXImus densitometer to measure bone density prior to OVX. Mice were allowed 7 days to recover. Mice in each group were randomized to EED inhibitor treatment or control. These groups were sham/vehicle (Sh−), sham/EED (SH+), OVX/vehicle (OV−), and OVX/EED (OV+). Again, each mouse was imaged to determine bone density after OVX prior to EED treatment. Mice were then injected with vehicle control or 20 mg/kg MAK683 SQ twice weekly for 3 weeks.
# G610C mice [5] = experiment: μCT analysis of large cohort of G610C mice treated with MAK683; format: in vivo; details: for bone density (μCT) / trabecular structure: G610C mice; for bone density (μCT): 3 weeks, 9 mice per group; for trabecular structure: vs vehicle treated control; for bone quality parameters: OI mice
# Experimental: One day prior to treatment 5-week-old male G610C mice were weighed to determine dosing. MAK683 was dissolved in DMSO for each treatment arm of 5, 10, 20, or 50 mg/kg for selected mice. The volume was adjusted to […] for injection using corn oil. Mice were injected subcutaneously twice weekly for 3 weeks. After 3 weeks, mice were euthanized, and bone was harvested.
# To further examine if different doses of MAK683 improved bone formation in 01, SQ nine 5-week-old male G610C mice were injected with 50, 20, 10, or 5 mg/kg MAK683 twice a week for 3 weeks.
# [6] = individual OI mice of the 100 mg/kg group, in g (unit assumed)
# [7] = individual OI mice of the 300 mg/kg group, in g (unit assumed)
# [8] = 100 mg/kg, vs vehicle, 100 mg/kg
# [9] = 300 mg/kg, vs vehicle, 300 mg/kg
# [10] = 20 mg/kg, vs OVX vehicle treated control
structure (smiles),measurement,setting,value
"CN(C)C1CN(C2CCc3cccc(F)c32)CC1c1ccc(N2CCN(S(C)(=O)=O)CC2)cc1 (stereo not drawn) [A-395, 1-(7-fluoro-2,3-dihydro-1H-inden-1-yl)-N,N-dimethyl-4-[4-(4-methylsulfonylpiperazin-1-yl)phenyl]pyrrolidin-3-amine]",H3K27me3 (western blotting),H3K27me3 in MC3T3 cells,reduced H3K27me3 in a concentration-dependent manner
same,stiffness (three-point bending),G610C mice [1]; 50 mg/kg SC twice a week,improved stiffness
same,stiffness (three-point bending),G610C mice [1]; 100 mg/kg SC twice a week,improved stiffness
same,toxicity to the mouse,"[2]; OI mice, 300 mg/kg SC twice weekly, 5 weeks",toxic
same,weight (change vs vehicle),"[2]; OI mice, 300 mg/kg or 100 mg/kg, after 5 weeks of treatment, vs vehicle",no significant changes
same,Weigh at 3 weeks,[2]; [6],10.5 and 10.2 and 9.6
same,Weight at 5 weeks,[2]; [6],21.3 and 21.6 and 19.9
same,Weigh at 3 weeks,[2]; [7],11.1 and 11.9 and 14.0
same,Weight at 5 weeks,[2]; [7],20.9 and 22.6 and 24.0
same,Weight at 10 weeks,"[2]; 100 mg/kg, after 5 weeks of treatment, 100 mg/kg",26.5 (2×) and 28.0
same,Weight at 10 weeks,"[2]; 300 mg/kg, after 5 weeks of treatment, 300 mg/kg, in g (unit assumed)",26.6 and 27.8 and 29.0
same,bone formation (μCT),G610C mice [3]; 50 mg/kg SC twice a week,increase in bone formation
same,bone formation (μCT),G610C mice [3]; 100 mg/kg SC twice a week,increase in bone formation
same,bone (μCT) vs controls,G610C mice [3]; 300 mg/kg SQ twice a week,less bone than controls
same,health of treated mice at end of protocol,G610C mice [3]; 300 mg/kg SQ twice a week,losing weight and appeared sickly
same,"osteogenic differentiation (osteogenic genes, alizarin red staining)",MC3T3 cells,stimulates osteogenesis; also recorded: more potent at stimulating osteogenic differentiation
same,bone surface density,OI mice; 100 mg/kg,increase
same,bone surface to volume ratio,OI mice; 100 mg/kg,decrease
same,intersection surface,OI mice; 100 mg/kg,no change
same,trabecular number,OI mice; 100 mg/kg,increase
same,trabecular pattern,OI mice; 100 mg/kg,decrease
same,trabecular thickness,OI mice; 100 mg/kg,increase
same,bone formation within the femurs (μCT),OI mice; 100 mg/kg SC twice weekly,robust bone formation
same,bone surface,"OI mice; 100 mg/kg, vs vehicle",increase
same,trabecular bone,"OI mice; 100 mg/kg, vs vehicle",increase in trabecular bone
same,bone volume,OI mice; [8],increased
same,percent bone per volume,OI mice; [8],increased
same,tissue surface,OI mice; [8],increased
same,tissue volume,OI mice; [8],increased
same,bone surface to volume ratio,OI mice; 300 mg/kg,unchanged
same,intersection surface,OI mice; 300 mg/kg,down
same,trabecular number,OI mice; 300 mg/kg,decrease
same,trabecular pattern,OI mice; 300 mg/kg,slight decrease
same,trabecular thickness,OI mice; 300 mg/kg,slight decrease
same,bone mineralization (μCT),OI mice; 300 mg/kg SC twice weekly,loss of bone mineralization
same,bone density,"OI mice; 300 mg/kg, FIG. 11A",down
same,trabecular bone,"OI mice; 300 mg/kg, vs vehicle",loss of trabecular bone
same,bone surface,OI mice; [9],decrease and down
same,bone volume,OI mice; [9],decreased
same,percent bone per volume,OI mice; [9],decreased
same,tissue volume,OI mice; [9],increased
"CS(=O)(=O)c1ccc(-c2cnc(NCc3ccco3)n3cnnc23)cc1 [EED226, n-(2-furanylmethyl)-8-[4-(methylsulfonyl)phenyl]-1,2,4-triazolo[4,3-c]pyrimidin-5-amine]",H3K27me3 (western blotting),H3K27me3 in MC3T3 cells,reduced H3K27me3 in a concentration-dependent manner
"Cc1ncccc1-c1cnc(NCc2c(F)ccc3c2CCO3)n2cnnc12 [MAK683, N-[(5-fluoro-2,3-dihydro-1-benzofuran-4-yl)methyl]-8-(2-methylpyridin-3-yl)-[1,2,4]triazolo[4,3-c]pyrimidin-5-amine]",bone density,G610C mice [4]; 20 mg/kg,significant increase
same,trabecular structure,G610C mice [4]; 20 mg/kg,significant increase
same,bone density,G610C mice [4]; 50 mg/kg,significant increase
same,trabecular structure,G610C mice [4]; 50 mg/kg,significant increase
same,bone parameters (μCT) vs controls,G610C mice [4]; 20 mg/kg SQ twice a week,improvement in essentially all bone parameters
same,bone parameters (μCT) vs controls,G610C mice [4]; 50 mg/kg SQ twice a week,improvement in many bone parameters
same,bone loss (μCT),"OVX mice; 20 mg/kg SQ twice weekly, 3 weeks",prevented bone loss
same,bone density,OVX mice; [10],significant intention
same,trabecular number,OVX mice; [10],significant intention
same,bone density (μCT),G610C mice [5]; 5 mg/kg SQ twice a week,possible minor improvement
same,bone density (μCT),"G610C mice [5]; 10 mg/kg SQ twice a week, 10 mg/kg",visual improvement; also recorded: significant increase
same,trabecular structure,G610C mice [5]; 10 mg/kg,significant increase
same,bone density (μCT),"G610C mice [5]; 20 mg/kg SQ twice a week, 20 mg/kg",visual improvement; also recorded: significant increase
same,trabecular structure,G610C mice [5]; 20 mg/kg,significant increase
same,bone density (μCT),G610C mice [5]; 50 mg/kg SQ twice a week,possible minor improvement
same,bone parameters (μCT) vs controls,"G610C mice [5]; G610C mice, 50, 20, 10, or 5 mg/kg, FIG. 17B-M",improvement in many bone parameters
same,bone quality parameters,G610C mice [5]; 5 mg/kg,trend in increased
same,bone quality parameters,G610C mice [5]; 50 mg/kg,trend in increased
